The target in the experiment is T1, Rec. human COMT (Homo sapiens, UniProt P21964).
T1 sequence (P21964 1-271): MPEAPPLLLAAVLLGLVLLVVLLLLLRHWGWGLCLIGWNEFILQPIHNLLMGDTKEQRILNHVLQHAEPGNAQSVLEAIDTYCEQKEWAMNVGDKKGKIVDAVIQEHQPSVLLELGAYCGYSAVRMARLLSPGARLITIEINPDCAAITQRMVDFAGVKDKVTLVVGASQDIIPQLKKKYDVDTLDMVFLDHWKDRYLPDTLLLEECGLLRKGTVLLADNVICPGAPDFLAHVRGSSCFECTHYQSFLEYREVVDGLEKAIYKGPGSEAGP
In words: COMT-Fluorescence Assay. The class given is biochemical. To be noted: rec. human COMT 25 nM, 4-Nitrocatechol-Alexa488 200 nM, SAM 500 nM. On the procedure: This intramolecular interaction is disturbed if the 4-Nitrocatechol is methylated. […] This increase of fluorescence intensity can be followed in a kinetic measurement. The slope in the linear range of the kinetic is calculated. An inhibitor compound decreases the slope.
Signal [rfu/min]=(rfu(end-point)−rfu(startpoint))/incubation_time_#2

The mark [1] stands for this setting: COMT-fluorescence assay, read-out: IC50.

Drawing on US9656971B2, “COMT inhibitors” (Hoffmann-La Roche Inc., priority 2012, dated 2017), this text covers IC50 for 44 molecules.

Broadly, the IC50 is the midpoint of a concentration-inhibition curve.

Structures are written as SMILES. Structures can show the parent of a compound that is named as a salt. Where two headings read alike, the source gives them in different places.

`CN(C)Cc1ccccc1-c1cc(O)c2nc[nH]c(=O)c2c1` [Example 155, 6-(2-((Dimethylamino)methyl)phenyl)-8-hydroxyquinazolin-4(3H)-one] yielded an IC50 (IC50, COMT-fluorescence assay) of 1380 nM.

`CCOc1cc(Cl)ccc1-c1cc(O)c2nc[nH]c(=O)c2c1` [Example 215, 6-(4-Chloro-2-ethoxyphenyl)-8-hydroxyquinazolin-4(3H)-one] returned an IC50 (IC50, COMT-fluorescence assay) of 70 nM.

Take `O=c1[nH]cnc2c(O)cc(Br)c(F)c12` [Example 196, 6-Bromo-5-fluoro-8-hydroxyquinazolin-4(3H)-one]: under setting [1], the IC50 was determined as 120 nM.

In turn, `O=c1[nH]cnc2c(O)cc(-c3ccc(O)cc3)cc12` [Example 129, 8-Hydroxy-6-(4-hydroxyphenyl)quinazolin-4(3H)-one] showed an IC50 (IC50, COMT-fluorescence assay) of 30 nM.

As for `Cc1ccc(O)c2nc[nH]c(=O)c12` [Example 140, 8-Hydroxy-5-methylquinazolin-4(3H)-one], the IC50 under setting [1] turned out to be 5040 nM.

With `Cc1ccc(C(=O)c2cc(O)c3nc[nH]c(=O)c3c2)cc1` [Example 66, 8-Hydroxy-6-(4-methylbenzoyl)quinazolin-4(3H)-one], the IC50 under setting [1] is 100 nM.

In turn, `O=c1[nH]cnc2c(O)cc(-c3ccc(F)cc3F)cc12` [Example 133, 6-(2,4-Difluorophenyl)-8-hydroxyquinazolin-4(3H)-one] registered an IC50 (IC50, COMT-fluorescence assay) of 20 nM.

`COc1ncc(-c2cc(O)c3nc[nH]c(=O)c3c2)c(OC)n1` [Example 160, 6-(2,4-Dimethoxypyrimidin-5-yl)-8-hydroxyquinazolin-4(3H)-one]: the IC50 under setting [1] was 80 nM.

For `COCc1cccc(-c2cc(O)c3nc[nH]c(=O)c3c2)c1` [Example 71, 8-Hydroxy-6-(3-(methoxymethyl)phenyl)quinazolin-4(3H)-one], under “IC50, COMT-fluorescence assay”, the IC50 was 20 nM.

With `CN(C)CCOCc1ccccc1-c1cc(O)c2nc[nH]c(=O)c2c1` [Example 241, 6-(2-((2-(Dimethylamino)ethoxy)methyl)phenyl)-8-hydroxyquinazolin-4(3H)-one], the IC50 under setting [1] worked out at 30 nM.

As to `CN(C)c1cccc(-c2cc(O)c3nc[nH]c(=O)c3c2)c1` [Example 148, 6-(3-Dimethylamino-phenyl)-8-hydroxy-3H-quinazolin-4-one], under setting [1], the IC50 amounted to 10 nM.

For `O=c1[nH]cnc2c(O)cc(-c3ccccc3Cc3ccccc3)cc12` [Example 98, 6-(2-Benzylphenyl)-8-hydroxyquinazolin-4(3H)-one], under setting [1], the IC50 is 40 nM.

In the case of `O=c1[nH]cnc2c(O)cc(-c3ccccc3S(=O)(=O)N3CCCCC3)cc12` [Example 251, 8-Hydroxy-6-[2-(piperidine-1-sulfonyl)-phenyl]-3H-quinazolin-4-one], the IC50 under setting [1] is 740 nM.

For `CCOc1ccccc1-c1cc(O)c2nc[nH]c(=O)c2c1` [Example 225, 6-(2-Ethoxyphenyl)-8-hydroxyquinazolin-4(3H)-one], under setting [1], the IC50 worked out at 60 nM.

For `Cc1ncccc1-c1cc(O)c2nc[nH]c(=O)c2c1` [Example 138, 8-hydroxy-6-(2-methylpyridin-3-yl)quinazolin-4(3H)-one], the IC50 under setting [1] was found to be 20 nM.

`CN(C)Cc1cccc(-c2cc(O)c3nc[nH]c(=O)c3c2)c1` [Example 229, 6-(3-Dimethylaminomethyl-phenyl)-8-hydroxy-3H-quinazolin-4-one]: the IC50 under setting [1] was 54 nM.

As to `CCN(CC)C(=O)c1ccc(-c2c(-c3ccc(F)cc3)cc(O)c3nc[nH]c(=O)c23)cc1` [Example 55, N,N-Diethyl-4-(6-(4-fluorophenyl)-8-hydroxy-4-oxo-3,4-dihydroquinazolin-5-yl)benzamide], the IC50 under setting [1] was found to be 10 nM.

For `CN1CCN(C(=O)c2cc(-c3cc(O)c4nc[nH]c(=O)c4c3)n(C)n2)CC1` [Example 230, 8-Hydroxy-6-(1-methyl-3-(4-methylpiperazine-1-carbonyl)-1H-pyrazol-5-yl)quinazolin-4(3H)-one formate], the IC50 under setting [1] worked out at 20 nM.

For the molecule `CC(C)Oc1cccc(-c2cc(O)c3nc[nH]c(=O)c3c2)c1` [Example 24, 8-Hydroxy-6-(3-isopropoxyphenyl)quinazolin-4(3H)-one], the IC50 (IC50, COMT-fluorescence assay) turned out to be 10 nM.

With `O=c1[nH]cnc2c(O)cc(C#Cc3ccccc3)cc12` [Example 23, 8-Hydroxy-6-(phenylethynyl)quinazolin-4(3H)-one], the IC50 under setting [1] came out at 10 nM.

Turning to `Cc1ccc(-c2cc(O)c3nc[nH]c(=O)c3c2)c(C)n1` [Example 202, 6-(2,6-Dimethyl-pyridin-3-yl)-8-hydroxy-3H-quinazolin-4-one], the IC50 under setting [1] stood at 20 nM.

Consider `O=c1[nH]cnc2c(O)cc(-c3cccc(N4CCCC4)n3)cc12` [Example 63, 8-Hydroxy-6-(6-(pyrrolidin-1-yl)pyridin-2-yl)quinazolin-4(3H)-one], for which the IC50 under setting [1] worked out at 40 nM.

For the molecule `O=c1[nH]cnc2c(O)cc(-c3ccc(-c4ccccn4)s3)cc12` [Example 89, 8-Hydroxy-6-(5-(pyridin-2-yl)thiophen-2-yl)quinazolin-4(3H)-one], the IC50 under setting [1] is 20 nM.

On to `CN(C)CCc1cccc(-c2cc(O)c3nc[nH]c(=O)c3c2)c1` [Example 247, 6-(3-(2-(Dimethylamino)ethyl)phenyl)-8-hydroxyquinazolin-4(3H)-one], for which inhibition (IC50, COMT-fluorescence assay) was half-maximal at 50 nM (IC50).

For the molecule `O=c1[nH]cnc2c(O)cc(-c3ccc(F)cc3)cc12` [Example 125, 6-(4-Fluorophenyl)-8-hydroxyquinazolin-4(3H)-one], under setting [1], the IC50 is 20 nM.

On to `CCOC(=O)c1[nH]c(-c2cc(O)c3nc[nH]c(=O)c3c2)nc1C` [Example 80, Ethyl 2-(8-hydroxy-4-oxo-3,4-dihydroquinazolin-6-yl)-4-methyl-1H-imidazole-5-carboxylate], for which the IC50 under setting [1] amounted to 90 nM.

On to `O=c1[nH]cnc2c(O)cc(Cc3ccccc3)cc12` [Example 9, 6-Benzyl-8-hydroxyquinazolin-4(3H)-one], for which the IC50 under setting [1] amounted to 1330 nM.

For the molecule `CC(C)N1CCc2c(cccc2-c2cc(O)c3nc[nH]c(=O)c3c2)C1` [Example 108, 8-Hydroxy-6-(2-isopropyl-1,2,3,4-tetrahydroisoquinolin-5-yl)quinazolin-4(3H)-one 2,2,2-trifluoroacetate], the IC50 under setting [1] came out at 80 nM.

As for `O=c1[nH]cnc2c(O)c(Cl)c(Br)cc12` [Example 246, 6-Bromo-7-chloro-8-hydroxyquinazolin-4(3H)-one], under setting [1], the IC50 is 1590 nM.

Turning to `N#Cc1ccc(-c2c(-c3ccc(F)cc3)cc(O)c3nc[nH]c(=O)c23)cc1` [Example 64, 4-[6-(4-Fluoro-phenyl)-8-hydroxy-4-oxo-3,4-dihydro-quinazolin-5-yl]-benzonitrile], under setting [1], the IC50 turned out to be 10 nM.

Regarding `Cc1ccc(-c2cc(O)c3nc[nH]c(=O)c3c2)cc1` [Example 130, 8-Hydroxy-6-p-tolylquinazolin-4(3H)-one], the IC50 (IC50, COMT-fluorescence assay) was 30 nM.

Take `Cn1cncc1-c1cc(O)c2nc[nH]c(=O)c2c1` [Example 79, 8-Hydroxy-6-(1-methyl-1H-imidazol-5-yl)quinazolin-4(3H)-one]: the IC50 under setting [1] worked out at 150 nM.

Regarding `O=c1[nH]cnc2c(O)cc(Br)c(C(F)(F)F)c12` [Example 41, 6-Bromo-8-hydroxy-5-(trifluoromethyl)quinazolin-4(3H)-one], under setting [1], the IC50 came out at 160 nM.

`Cc1c(-c2cc(O)c3nc[nH]c(=O)c3c2)cnn1C` [Example 206, 6-(1,5-Dimethyl-1H-pyrazol-4-yl)-8-hydroxyquinazolin-4(3H)-one]: the IC50 under setting [1] came to 30 nM.

`CN(C)S(=O)(=O)c1ccccc1-c1cc(O)c2nc[nH]c(=O)c2c1` [Example 250, 2-(8-Hydroxy-4-oxo-3,4-dihydro-quinazolin-6-yl)-N,N-dimethyl-benzenesulfonamide]: the IC50 under setting [1] was 1140 nM.

Regarding `Cc1nc(-c2ccccc2)sc1-c1cc(O)c2nc[nH]c(=O)c2c1` [Example 203, 8-Hydroxy-6-(4-methyl-2-phenylthiazol-5-yl)quinazolin-4(3H)-one], the IC50 under setting [1] is 10 nM.

Regarding `O=c1[nH]cnc2c(O)ccc(F)c12` [Example 197, 5-Fluoro-8-hydroxyquinazolin-4(3H)-one], the IC50 under setting [1] was 2530 nM.

For the molecule `CN1CCN(c2cc(O)c3nc[nH]c(=O)c3c2)CC1` [Example 190, 8-Hydroxy-6-(4-methyl-piperazin-1-yl)-3H-quinazolin-4-one], the IC50 (IC50, COMT-fluorescence assay) was 1290 nM.

Consider `CC(=O)Nc1ccccc1-c1cc(O)c2nc[nH]c(=O)c2c1` [Example 159, N-(2-(8-Hydroxy-4-oxo-3,4-dihydroquinazolin-6-yl)phenyl)acetamide], for which the half-inhibitory concentration (IC50) under setting [1] was 550 nM.

As for `O=c1[nH]cnc2c(O)cc(-c3ccccc3CCCN3CCCC3)cc12` [Example 242, 8-Hydroxy-6-(2-(3-(pyrrolidin-1-yl)propyl)phenyl)quinazolin-4(3H)-one], the IC50 under setting [1] is 220 nM.

In the case of `O=C(c1ccncc1)c1cc(O)c2nc[nH]c(=O)c2c1` [Example 93, 8-Hydroxy-6-isonicotinoylquinazolin-4(3H)-one], the IC50 under setting [1] was 160 nM.

As to `COC(=O)c1nn(C)cc1-c1cc(O)c2nc[nH]c(=O)c2c1` [Example 88, Methyl 4-(8-hydroxy-4-oxo-3,4-dihydroquinazolin-6-yl)-1-methyl-1H-pyrazole-3-carboxylate], under setting [1], the IC50 came out at 120 nM.

Turning to `O=c1[nH]cnc2c(O)cc(-c3cncc4ccccc34)cc12` [Example 168, 8-Hydroxy-6-(isoquinolin-4-yl)quinazolin-4(3H)-one], under setting [1], the IC50 was found to be 30 nM.

Take `O=c1[nH]cnc2c(O)cc(C3CCOCC3)cc12` [Example 69, 8-Hydroxy-6-(tetrahydro-2H-pyran-4-yl)quinazolin-4(3H)-one 2,2,2-trifluoroacetate]: the IC50 under setting [1] came to 1040 nM.
